One assay relates to M. tuberculosis H37Rv. Conditions: for EC50: M. tuberculosis growth, 1 week incubation, mean ± SD (n = 3) for JCP276, BMB034, BMB038, others single dose-response experiment (n = 1).
The test system of assay [1] is BMB034-labeled proteins (serine hydrolases) of M. tuberculosis H37Rv. Nature of the assay: Competitive ABPP in live cells with BMB034 probe, gel-based. The settings on record: pre-treatment of cultures 1 h; 1 μM BMB034 labeling; JCP276 at 1 or 10 μM.

Here are results for 3 molecules from article PMC9252067 (Cell chemical biology, 2021).

The structures appear in SMILES notation.

Regarding `C#CCCOc1oc(=O)c2cc(NC(=O)Nc3ccccc3)ccc2c1Cl` [BMB034, 1-(3-(but-3-yn-1-yloxy)-4-chloro-1-oxo-1H-isochromen-7-yl)-3-phenylurea], in the assay with M. tuberculosis H37Rv, the 50% effective concentration (EC50) – broadly, the midpoint of the concentration-response curve – stood at 8.7 ± 1.1 µM.

Regarding `O=c1oc(Cl)c(Cl)c2ccccc12` [DCI, 3,4-dichloroisocoumarin], the “inhibition of M. tuberculosis growth” value in the assay on M. tuberculosis H37Rv (negative control compound) is “does not inhibit M. tuberculosis growth”. In addition, the “competition with BMB034 labeling” value in assay [1] is on record as “did not compete”. `C#Cc1ccc(NC(=O)Nc2ccc3c(Cl)c(OCCCBr)oc(=O)c3c2)cc1` [BMB038, 1-(3-(3-bromopropoxy)-4-chloro-1-oxo-1H-isochromen-7-yl)-3-(4-ethynylphenyl)urea]: the half-maximal effective concentration (EC50) in the assay on M. tuberculosis H37Rv amounted to 36 ± 11 µM.
